Experimental data from patent publication US7691572B2, “Method and kit for detecting resistance to antiviral drugs” (priority 1998, dated 2010).
Where two headings read alike, the source gives them in different places.

Experiments:
HIV-1 RT [1] = biological target: T1, HIV-1 RT (Human immunodeficiency virus type 1 group M subtype B, UniProt P04585); assay: Amp-RT assay, AZT-TP and other NRTI-TPs, reference viruses; type: biochemical; conditions: WT HIV-1SUM9
HIV-1 RT [2] = biological target: HIV-1 RT (Human immunodeficiency virus type 1, UniProt P04585, A649V/F664L/F703Y/Q738M/V662I); assay: as above; type: biochemical
HIV-1 RT [3] = biological target: HIV-1 RT (Human immunodeficiency virus type 1, UniProt P04585, F664L/F703Y/Q738M); assay: as above; type: biochemical
HIV-1 RT [4] = biological target: HIV-1 RT (Human immunodeficiency virus type 1, UniProt P04585, Q738M); assay: as above; type: biochemical
HIV-1 RT [5] = assay: as above; type: biochemical
HIV-1 RT [6] = biological target: T1, HIV-1 RT; type: biochemical; conditions: read-out: IC50 Amp-RT assay; patient-derived virus 12 (L1), None
From the text: (§1) Four groups of archived HIV-1 specimens with known genotypes were selected for assay validation. These included WT, MNR, MNR carrying unrelated resistance mutations, and non-MNR specimens carrying classical AZT resistance mutations (Schmit et al., “Multiple drug resistance to nucleoside analogues and nonnucleoside reverse transcriptase inhibitors in an efficiently replicating human immunodeficiency virus type 1 patient strain,” J. Infect. Dis. 174: 962-968 (1996); Winters et al., “A 6-base pair insert in the reverse transcriptase gene of human immunodeficiency virus type 1 confers resistance to multiple nucleoside inhibitors,” J. Clin. Invest. 102: 1769-1775 (1998); Adje et al., “High prevalence of genotypic and phenotypic HIV-1 drug-resistant strains among patients receiving antiretroviral therapy in Abidjan, Cote d'Ivoire,” J. Acquired Immune Deficiency Syndromes 26: 501-506 (2001); Weinstock et al., “Prevalence of mutations associated with reduced antiretroviral drug susceptibility among human immunodeficiency virus type 1 seroconverters in the United States, 1993-1998,” J. Infect. Dis. 182: 330-333 (2000)). Forty-four samples were selected which comprised 7 viral stocks and 37 plasma samples obtained from 34 HIV-1-infected persons.

HIV-1 RT [7] = biological target: HIV-1 RT (Human immunodeficiency virus type 1, UniProt P04585, F664L/S655G/V662I, form not given); type: biochemical; conditions: read-out: IC50 Amp-RT assay; patient-derived virus 15 (L6), S68G, V75I, F77L, K103N, F116Y, Q151M, M184V
From the text: as §1

HIV-1 RT [8] = biological target: HIV-1 RT (Human immunodeficiency virus type 1, UniProt P04585, Q738M/S655G); type: biochemical; conditions: read-out: IC50 Amp-RT assay; patient-derived virus 13 (L2), S68G, Q151M
From the text: as §1

HIV-1 RT [9] = biological target: HIV-1 RT (Human immunodeficiency virus type 1, UniProt P04585, S655G/V662I, form not given); type: biochemical; conditions: read-out: IC50 Amp-RT assay; patient-derived virus 14 (L4), A62A/V, S68G, V75I, F77L, F116Y, Q151M
From the text: as §1

HIV-1 RT [10] = type: biochemical
From the text: as §1

HIV-1 RT [11] = type: biochemical; remark: listed apart in the source
HIV-1 reference viruses [12] = assay: culture-based assay, inhibition of HIV-1-induced cytopathic effect; type: cell-based
From the text: The IC50 values of AZT-TP for WT and MNR reference viruses determined by the Amp-RT assay were compared with previously reported IC50 values determined by a conventional RT assay and a culture-based phenotypic assay (Ueno et al., “Enzymatic characterization of human immunodeficiency virus type 1 reverse transcriptase resistant to multiple 2′,3′-dideoxynucleoside 5′-triphosphates,” J. Biol, Chem. 270: 23605-23611 (1995); Shirasaka et al., “Emergence of human immunodeficiency virus type 1 variants with resistance to multiple dideoxynucleosides in patients receiving therapy with dideoxynucleosides,” Proc. Nat. Acad. Sci. U.S.A. 92: 2398-2402 (1995)).

patient-derived HIV-1 [13] = assay: culture-based plaque reduction assay (Schmit et al., 1996); type: cell-based
From the text: The results obtained are correlated with the genotypes of the specimens.

HIV-1 RT [14] = conditions: cited from earlier work
HIV-1 reference viruses [15] = conditions: read-out: IC50 Culture based assay, cited from earlier work
patient-derived HIV-1 [16] = conditions: read-out: IC50 Culture based assay, cited from earlier work
HIV-1 [17] = conditions: cited from earlier work
HIV-1 [18] = conditions: classical AZT resistance mutations T215Y/F, M41L, D67N, K70R, K219Q/E; cited from earlier work
[19] = HIV1SUM13 (A62V, V75I, F77L, F116Y, Q151M)

Structure (SMILES): Cc1cn([C@H]2C[C@H](N=[N+]=[N-])[C@@H](CO)O2)c(=O)[nH]c1=O [AZT, zidovudine]
- IC50 (HIV-1 RT [1]): 500 nM
- IC50 (HIV-1 RT [2]): 18000 nM
- IC50 (HIV-1 RT [3]): 11000 nM
- IC50 (HIV-1 RT [4]): 2500 nM
- fold resistance (IC50) as compared to the mean IC values of WT HIV-1 (HIV-1 RT [5]; MNR HIV-1SUM8 (Q151M)): (5) fold
- fold resistance (IC50) as compared to the mean IC values of WT HIV-1 (HIV-1 RT [5]; MNR HIV-1SUM12 (F77L, F116Y, Q151M)): (22) fold
- fold resistance (IC50) as compared to the mean IC values of WT HIV-1 (HIV-1 RT [5]; MNR HIV-1SUM13 (A62V, V75I, F77L, F116Y, Q151M)): (36) fold
- IC50 (HIV-1 RT [6]): 350 nM
- IC50 (HIV-1 RT [7]): 14600 nM
- IC50 (HIV-1 RT [8]): 1350 nM
- IC50 (HIV-1 RT [9]): 8230 nM
- fold change from IC50 of WT HIV-1, Amp-RT assay (HIV-1 RT [10]; patient-derived virus 13 (L2)): (3.9) fold
- fold change from IC50 of WT HIV-1, Amp-RT assay (HIV-1 RT [10]; patient-derived virus 14 (L4)): (23.5) fold
- fold change from IC50 of WT HIV-1, Amp-RT assay (HIV-1 RT [10]; patient-derived virus 15 (L6)): (41.8) fold
- fold change from IC50 of WT HIV-1, RT assay (HIV-1 RT [11]; HIV1SUM8 (Q151M)): (8.3) fold
- fold change from IC50 of WT HIV-1, RT assay (HIV-1 RT [11]; HIV1SUM12): (38) fold
- fold change from IC50 of WT HIV-1, RT assay (HIV-1 RT [11]; HIV1SUM13): (65) fold
- fold change from IC50 of WT HIV-1, Culture based assay (HIV-1 reference viruses [12]; HIV1SUM8): (10) fold
- fold change from IC50 of WT HIV-1, Culture based assay (HIV-1 reference viruses [12]; HIV1SUM12): (>320) fold
- fold change from IC50 of WT HIV-1, Culture based assay (HIV-1 reference viruses [12]; HIV1SUM13): (>320) fold
- fold change from IC50 of WT HIV-1, Culture based assay (patient-derived HIV-1 [13]; 13 (L2)): (1.5) fold
- fold change from IC50 of WT HIV-1, Culture based assay (patient-derived HIV-1 [13]; 14 (L4)): (633) fold
- fold change from IC50 of WT HIV-1, Culture based assay (patient-derived HIV-1 [13]; 15 (L6)): (3117) fold
- IC50 (HIV-1 RT [14]; HIV1SUM8 (Q151M)): 190 nM
- IC50 (HIV-1 RT [14]; HIV1SUM9 (None)): 23 nM
- IC50 (HIV-1 RT [14]; HIV1SUM12 (F77L, F116Y, Q151M)): 880 nM
- IC50 (HIV-1 RT [14]; [19]): 1500 nM
- IC50 (HIV-1 reference viruses [15]; HIV1SUM8 (Q151M)): 5000 nM
- IC50 (HIV-1 reference viruses [15]; HIV1SUM9 (None)): 500 nM
- IC50 (HIV-1 reference viruses [15]; HIV1SUM12 (F77L, F116Y, Q151M)): > 160000 nM
- IC50 (HIV-1 reference viruses [15]; [19]): > 160000 nM
- IC50 (patient-derived HIV-1 [16]; 12 (L1), None): 6 nM
- IC50 (patient-derived HIV-1 [16]; 13 (L2), S68G, Q151M): 9 nM
- IC50 (patient-derived HIV-1 [16]; 14 (L4), A62A/V, S68G, V75I, F77L, F116Y, Q151M): 3800 nM
- IC50 (patient-derived HIV-1 [16]; 15 (L6), S68G, V75I, F77L, K103N, F116Y, Q151M, M184V): 18700 nM
- reduced susceptibility to AZT (HIV-1 [17]; plasma sample HIV-1R598 (D67N, V106A, L214W, L214F, T215Y)): 100 fold
- reduced susceptibility to AZT (HIV-1 [17]; specimen no. 40 (T215Y, T69S-EA insertions)): 100 fold
- resistance to AZT (HIV-1 [18]): > 100 fold
